Measured values taken from patent publication US20230058171A1, “NEW ORAL PHARMACEUTICAL COMPOSITION FOR CANCER THERAPY” (BOEHRINGER INGELHEIM INTERNATIONAL GMBH, priority 2021, published 2023).
Where two headings read alike, the source gives them in different places.

Assay: Preliminary pharmacokinetics in trial 1403-0001 (Arm A D1 q3w, Arm B D1 D8 q4w)
Type: in vivo, human
Conditions: for Vd/F / half-life / Tmax / AUC(0-inf) / Cmax: human, plasma, oral
Source text: Preliminary PK data were available from the first 45 treated patients in study 1403-0001. The exploratory PK analysis is based on planned blood sampling time-points and the results are subject to change because not all samples from these patients have been analyzed yet. Therefore, AUCs may be incomplete. In addition, information on the absorption, distribution, and elimination of the MDM2 antagonist of formula I are descriptive given the limited exploratory PK results available up to this point in time.
Consequently the preliminary PK results support the dose selection of 45 mg (and alternatively even of 30 mg) combined with the once in three weeks (D1 q3w) dose regimen. The tmax of the MDM2 antagonist of formula I is generally between 4 and 6 hours after tablet intake.

Cc1c(C(=O)O)ccc2c3n(nc12)[C@@H]1[C@H](C3)N(CC2CC2)[C@@]2(C(=O)Nc3cc(Cl)ccc32)[C@H]1c1cccc(Cl)c1F [MDM2-antagonist of formula I, (2′S,3′S,3a'S,10a'S)-6-chloro-3′-(3-chloro-2-fluorophenyl)-1′-(cyclopropylmethyl)-6′-methyl-2-oxo-1,2,3′,3a′,10′,10a′-hexahydro-1′H-spiro[indole-3,2′-pyrrolo[2′,3′:4,5]pyrrolo[1,2-b]indazole]-7′-carboxylic acid]
Vd/F (10 mg, Day 1, D1 D8 q4w (Arm B), gMean, N=3, read-out: Vz/F): 24.5 L
half-life (10 mg, Day 1, D1 D8 q4w (Arm B), gMean, N=3, read-out: t1/2 (converted)): 52.4 h
Tmax (10 mg, Day 1, D1 D8 q4w (Arm B), median, N=3, read-out: tmax): 6 h
AUC(0-inf) (10 mg, Day 8, D1 D8 q4w (Arm B), gMean, N=3, read-out: AUC0-∞): 48.4 µM·h
Cmax (10 mg, Day 8, D1 D8 q4w (Arm B), gMean, N=3, read-out: Cmax): 714 nM
Vd/F (10 mg, Day 8, D1 D8 q4w (Arm B), gMean, N=3, read-out: Vz/F): 23.1 L
half-life (10 mg, Day 8, D1 D8 q4w (Arm B), gMean, N=3, read-out: t1/2 (converted)): 45.9 h
Tmax (10 mg, Day 8, D1 D8 q4w (Arm B), median, N=3, read-out: tmax): 5 h
AUC(0-inf) (15 mg, Day 1, D1 D8 q4w (Arm B), gMean, N=3, read-out: AUC0-∞): 37.8 µM·h
Cmax (15 mg, Day 1, D1 D8 q4w (Arm B), gMean, N=3, read-out: Cmax): 831 nM
Vd/F (15 mg, Day 1, D1 D8 q4w (Arm B), gMean, N=3, read-out: Vz/F): 32.3 L
half-life (15 mg, Day 1, D1 D8 q4w (Arm B), gMean, N=3, read-out: t1/2 (converted)): 33.4 h
Tmax (15 mg, Day 1, D1 D8 q4w (Arm B), median, N=3, read-out: tmax): 5 h
AUC(0-inf) (15 mg, Day 8, D1 D8 q4w (Arm B), gMean, N=2, read-out: AUC0-∞): 25.8 µM·h
Vd/F (15 mg, Day 8, D1 D8 q4w (Arm B), gMean, N=2, read-out: Vz/F): 37.3 L
half-life (15 mg, Day 8, D1 D8 q4w (Arm B), gMean, N=2, read-out: t1/2 (converted)): 26.3 h
Cmax (15 mg, Day 8, D1 D8 q4w (Arm B), gMean, N=3, read-out: Cmax): 776 nM
Tmax (15 mg, Day 8, D1 D8 q4w (Arm B), median, N=3, read-out: tmax): 4 h
Cmax (20 mg, Arm A D1 q3w, 20 mg, N=2, read-out: Cmax (gMean)): 1160 nM
Tmax (20 mg, Arm A D1 q3w, 20 mg, N=2, read-out: tmax (median)): 5.5 h
AUC(0-inf) (20 mg, Day 1, D1 D8 q4w (Arm B), gMean, N=3, read-out: AUC0-∞): 88.9 µM·h
Cmax (20 mg, Day 1, D1 D8 q4w (Arm B), gMean, N=3, read-out: Cmax): 1370 nM
Vd/F (20 mg, Day 1, D1 D8 q4w (Arm B), gMean, N=3, read-out: Vz/F): 27.7 L
half-life (20 mg, Day 1, D1 D8 q4w (Arm B), gMean, N=3, read-out: t1/2 (converted)): 50.5 h
Tmax (20 mg, Day 1, D1 D8 q4w (Arm B), median, N=3, read-out: tmax): 4 h
AUC(0-inf) (20 mg, Day 8, D1 D8 q4w (Arm B), gMean, N=3, read-out: AUC0-∞): 61.1 µM·h
Cmax (20 mg, Day 8, D1 D8 q4w (Arm B), gMean, N=3, read-out: Cmax): 1220 nM
Vd/F (20 mg, Day 8, D1 D8 q4w (Arm B), gMean, N=3, read-out: Vz/F): 30.5 L
half-life (20 mg, Day 8, D1 D8 q4w (Arm B), gMean, N=3, read-out: t1/2 (converted)): 38.2 h
Tmax (20 mg, Day 8, D1 D8 q4w (Arm B), median, N=3, read-out: tmax): 3 h
AUC(0-inf) (30 mg, Arm A D1 q3w, 30 mg, N=3, read-out: AUC0-∞, gMean (gCV [%])): 113 µM·h
Cmax (30 mg, Arm A D1 q3w, 30 mg, N=3, read-out: Cmax (gMean)): 2890 nM
Vd/F (30 mg, Arm A D1 q3w, 30 mg, N=3, read-out: Vz/F, gMean (gCV [%])): 23.6 L
Tmax (30 mg, Arm A D1 q3w, 30 mg, N=3, read-out: tmax (median)): 4 h
AUC(0-inf) (30 mg, Day 1, D1 D8 q4w (Arm B), gMean, N=4, read-out: AUC0-∞): 79.9 µM·h
Cmax (30 mg, Day 1, D1 D8 q4w (Arm B), gMean, N=4, read-out: Cmax): 1440 nM
Vd/F (30 mg, Day 1, D1 D8 q4w (Arm B), gMean, N=4, read-out: Vz/F): 33.1 L
half-life (30 mg, Day 1, D1 D8 q4w (Arm B), gMean, N=4, read-out: t1/2 (converted)): 36.2 h
Tmax (30 mg, Day 1, D1 D8 q4w (Arm B), median, N=4, read-out: tmax): 4.5 h
AUC(0-inf) (30 mg, Day 8, D1 D8 q4w (Arm B), gMean, N=3, read-out: AUC0-∞): 64.8 µM·h
Cmax (30 mg, Day 8, D1 D8 q4w (Arm B), gMean, N=3, read-out: Cmax): 1330 nM
Vd/F (30 mg, Day 8, D1 D8 q4w (Arm B), gMean, N=3, read-out: Vz/F): 44.6 L
half-life (30 mg, Day 8, D1 D8 q4w (Arm B), gMean, N=3, read-out: t1/2 (converted)): 39.5 h
Tmax (30 mg, Day 8, D1 D8 q4w (Arm B), median, N=3, read-out: tmax): 4 h
AUC(0-inf) (45 mg, Arm A D1 q3w, 45 mg, N=6, read-out: AUC0-∞, gMean (gCV [%])): 137 µM·h
Cmax (45 mg, Arm A D1 q3w, 45 mg, N=6, read-out: Cmax (gMean)): 2710 nM
Vd/F (45 mg, Arm A D1 q3w, 45 mg, N=6, read-out: Vz/F, gMean (gCV [%])): 35.1 L
half-life (45 mg, Arm A D1 q3w, 45 mg, N=6, read-out: t1/2 (gMean) (converted)): 43.7 h
Tmax (45 mg, Arm A D1 q3w, 45 mg, N=6, read-out: tmax (median)): 4 h
AUC(0-inf) (45 mg, Day 1, D1 D8 q4w (Arm B), gMean, N=2, read-out: AUC0-∞): 96.9 µM·h
Cmax (45 mg, Day 1, D1 D8 q4w (Arm B), gMean, N=2, read-out: Cmax): 2330 nM
Vd/F (45 mg, Day 1, D1 D8 q4w (Arm B), gMean, N=2, read-out: Vz/F): 34 L
half-life (45 mg, Day 1, D1 D8 q4w (Arm B), gMean, N=2, read-out: t1/2 (converted)): 30 h
Tmax (45 mg, Day 1, D1 D8 q4w (Arm B), median, N=2, read-out: tmax): 4 h
AUC(0-inf) (50 mg, Arm A D1 q3w, 50 mg, N=4, read-out: AUC0-∞, gMean (gCV [%])): 314 µM·h
Cmax (50 mg, Arm A D1 q3w, 50 mg, N=4, read-out: Cmax (gMean)): 3740 nM
Vd/F (50 mg, Arm A D1 q3w, 50 mg, N=4, read-out: Vz/F, gMean (gCV [%])): 23.7 L
half-life (50 mg, Arm A D1 q3w, 50 mg, N=4, read-out: t1/2 (gMean) (converted)): 60.9 h
Tmax (50 mg, Arm A D1 q3w, 50 mg, N=4, read-out: tmax (median)): 5.5 h
AUC(0-inf) (60 mg, Arm A D1 q3w, 60 mg, N=6, read-out: AUC0-∞, gMean (gCV [%])): 163 µM·h
Vd/F (60 mg, Arm A D1 q3w, 60 mg, N=6, read-out: Vz/F, gMean (gCV [%])): 31.4 L
half-life (60 mg, Arm A D1 q3w, 60 mg, N=6, read-out: t1/2 (gMean) (converted)): 34.9 h
Cmax (60 mg, Arm A D1 q3w, 60 mg, N=7, read-out: Cmax (gMean)): 3270 nM
Tmax (60 mg, Arm A D1 q3w, 60 mg, N=7, read-out: tmax (median)): 5 h
AUC(0-inf) (60 mg, Day 1, D1 D8 q4w (Arm B), gMean, N=2, read-out: AUC0-∞): 87.7 µM·h
Cmax (60 mg, Day 1, D1 D8 q4w (Arm B), gMean, N=2, read-out: Cmax): 1960 nM
Vd/F (60 mg, Day 1, D1 D8 q4w (Arm B), gMean, N=2, read-out: Vz/F): 57 L
half-life (60 mg, Day 1, D1 D8 q4w (Arm B), gMean, N=2, read-out: t1/2 (converted)): 34.2 h
Tmax (60 mg, Day 1, D1 D8 q4w (Arm B), median, N=2, read-out: tmax): 6 h
Cmax (60 mg, Day 8, D1 D8 q4w (Arm B), gMean, N=2, read-out: Cmax): 1890 nM
Tmax (60 mg, Day 8, D1 D8 q4w (Arm B), median, N=2, read-out: tmax): 16 h
AUC(0-inf) (80 mg, Arm A D1 q3w, 80 mg, N=2, read-out: AUC0-∞, gMean (gCV [%])): 205 µM·h
Cmax (80 mg, Arm A D1 q3w, 80 mg, N=2, read-out: Cmax (gMean)): 3930 nM
Vd/F (80 mg, Arm A D1 q3w, 80 mg, N=2, read-out: Vz/F, gMean (gCV [%])): 26.5 L
half-life (80 mg, Arm A D1 q3w, 80 mg, N=2, read-out: t1/2 (gMean) (converted)): 27.9 h
Tmax (80 mg, Arm A D1 q3w, 80 mg, N=2, read-out: tmax (median)): 3.5 h
Tmax (after tablet intake, across dose groups, read-out: tmax): 4 to 6 h
half-life (range across dose groups, read-out: half-life): 27.9 to 60.9 h
half-life (Arm A D1 q3w, 30 mg, N=3, read-out: t1/2 (gMean) (converted)): 36.4 h
clearance (humans, preliminary PK data): low clearance
dose levels at which exposure (Cmax and AUC0-inf) is above predicted therapeutic exposures (humans, preliminary PK data): ≥ 15 mg
volume of distribution (humans, preliminary PK data): very low volume of distribution
